Test results from patent publication US9321764B2, “Dihydro-pyrrolopyridinone inhibitors” (AbbVie Inc., priority 2013, dated 2016).
One block for each molecule: values may come before it.

Tests used:
BRD4 (BDI_K57-E168) = biological target: T1, BRD4 (BDI_K57-E168) (Homo sapiens, UniProt O60885); test: TR-FRET bromodomain binding assay, first bromodomain of BRD4; conditions: His-tagged BD1, 100 nM Alexa647 probe; TR-FRET protocol A-E given per row
T1 construct: BD1: amino acids K57-E168; made in house
Summary of the method: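 His-tagged BRD4 BD1 (K57-E168), 8 nM, with 1 nM Eu-anti-His antibody and 100 nM Alexa647-labelled BET-inhibitor probe in pH 6.0 phosphate buffer, 2% DMSO. TR-FRET read after 1 h at room temperature. IC50 from 4-parameter fit, converted to Ki using probe Kd and concentration.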

BRD4 (BDII_E352-M457) = biological target: T2, BRD4 (BDII_E352-M457) (Homo sapiens, UniProt O60885); test: TR-FRET bromodomain binding assay, second bromodomain of BRD4; conditions: His-tagged BD2, 30 nM Alexa647 probe; TR-FRET protocol A-E given per row
T2 construct: proliferation; Protocol; made in house
Summary of the method: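 His-tagged BRD4 BD2 ([…]) competed against an Alexa647-labelled BET-inhibitor probe in TR-FRET. Buffer was 20 mM sodium phosphate pH 6.0, 50 mM NaCl, 1 mM EDTA, 0.01% Triton X-100, 1 mM DTT, with method D DMSO series of 2.5 mM–800 nM (stock range). IC50 from 4-parameter fit, Ki from probe Kd and concentration.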

Ki (BRD4 (BDI_K57-E168)): 24 nM
Ki (BRD4 (BDII_E352-M457)): 81.3 nM
Structure (SMILES): Cc1ncc(CC(=O)Nc2ccc(Oc3ccc(F)cc3F)c(-c3cn(C)c4c(=O)[nH]ccc34)c2)s1 [Example 163, N-[4-(2,4-difluorophenoxy)-3-(1-methyl-7-oxo-6,7-dihydro-1H-pyrrolo[2,3-c]pyridin-3-yl)phenyl]-2-(2-methyl-1,3-thiazol-5-yl)acetamide]

Ki (BRD4 (BDI_K57-E168)): 41.6 nM
Ki (BRD4 (BDII_E352-M457)): 54 nM
Structure (SMILES): COc1ccccc1CC(=O)Nc1ccc(Oc2ccc(F)cc2F)c(-c2cn(C)c3c(=O)[nH]ccc23)c1 [Example 149, N-[4-(2,4-difluorophenoxy)-3-(1-methyl-7-oxo-6,7-dihydro-1H-pyrrolo[2,3-c]pyridin-3-yl)phenyl]-2-(2-methoxyphenyl)acetamide]

Ki (BRD4 (BDI_K57-E168)): 3.47 nM
Ki (BRD4 (BDII_E352-M457)): 11.4 nM
Structure (SMILES): CCS(=O)(=O)Nc1ccc(Oc2ccc(F)cc2F)c(-c2cn(C)c3c(=O)[nH]c(C(=O)NCc4ccoc4)cc23)c1 [Example 201, 3-{2-(2,4-difluorophenoxy)-5-[(ethylsulfonyl)amino]phenyl}-N-(furan-3-ylmethyl)-1-methyl-7-oxo-6,7-dihydro-1H-pyrrolo[2,3-c]pyridine-5-carboxamide]

Ki (BRD4 (BDI_K57-E168)): 1140 nM
Ki (BRD4 (BDII_E352-M457)): 1190 nM
Structure (SMILES): Cn1cc(-c2cc(CN3CCC(C(F)(F)F)CC3)ccc2Oc2ccc(F)cc2F)c2cc[nH]c(=O)c21 [Example 129, 3-[2-(2,4-difluorophenoxy)-5-{[4-(trifluoromethyl)piperidin-1-yl]methyl]phenyl}-1-methyl-1,6-dihydro-7H-pyrrolo[2,3-c]pyridin-7-one]

Ki (BRD4 (BDI_K57-E168)): 146 nM
Ki (BRD4 (BDII_E352-M457)): 183 nM
Structure (SMILES): Cn1cc(-c2cc(NC(=O)Cc3ccc4c(c3)CCCO4)ccc2Oc2ccc(F)cc2F)c2cc[nH]c(=O)c21 [Example 162, N-[4-(2,4-difluorophenoxy)-3-(1-methyl-7-oxo-6,7-dihydro-1H-pyrrolo[2,3-c]pyridin-3-yl)phenyl]-2-(3,4-dihydro-2H-chromen-6-yl)acetamide]

The remaining lines, values behind:

Structure (SMILES): CCS(=O)(=O)c1ccc(Oc2ccncc2)c(-c2cn(C)c3c(=O)[nH]ccc23)c1 [Example 74, 3-[5-(ethylsulfonyl)-2-(pyridin-4-yloxy)phenyl]-1-methyl-1,6-dihydro-7H-pyrrolo[2,3-c]pyridin-7-one]
Ki (BRD4 (BDI_K57-E168)): > 2380 nM
Ki (BRD4 (BDII_E352-M457)): 388 nM

Structure (SMILES): CCS(=O)(=O)Nc1ccc(Oc2ccc(F)cc2)c(-c2cn(C)c3c(=O)[nH]ccc23)c1 [Example 15, N-[4-(4-fluorophenoxy)-3-(1-methyl-7-oxo-6,7-dihydro-1H-pyrrolo[2,3-c]pyridin-3-yl)phenyl]ethanesulfonamide]
Ki (BRD4 (BDI_K57-E168)): 3.3 nM
Ki (BRD4 (BDII_E352-M457)): 12 nM

Structure (SMILES): CCS(=O)(=O)c1ccc(Oc2ccc(OC)cc2Cl)c(-c2cn(C)c3c(=O)[nH]ccc23)c1 [Example 85, 3-[2-(2-chloro-4-methoxyphenoxy)-5-(ethylsulfonyl)phenyl]-1-methyl-1,6-dihydro-7H-pyrrolo[2,3-c]pyridin-7-one]
Ki (BRD4 (BDI_K57-E168)): 44 nM
Ki (BRD4 (BDII_E352-M457)): 17 nM

Structure (SMILES): Cc1c[nH]c(=O)c2c1c(-c1cc(S(C)(=O)=O)ccc1OCCC1CC1)cn2C [Example 124, 3-[2-(2-cyclopropylethoxy)-5-(methylsulfonyl)phenyl]-1,4-dimethyl-1,6-dihydro-7H-pyrrolo[2,3-c]pyridin-7-one]
Ki (BRD4 (BDI_K57-E168)): 127 nM
Ki (BRD4 (BDII_E352-M457)): 104 nM

Structure (SMILES): Cn1cc(-c2cc(S(C)(=O)=O)ccc2Oc2ccccc2)c2cc[nH]c(=O)c21 [Example 18, 1-methyl-3-[5-(methylsulfonyl)-2-phenoxyphenyl]-1,6-dihydro-7H-pyrrolo[2,3-c]pyridin-7-one]
Ki (BRD4 (BDI_K57-E168)): 12 nM
Ki (BRD4 (BDII_E352-M457)): 21 nM

Structure (SMILES): Cn1cc(-c2cc(S(C)(=O)=O)ccc2OCCC23CC4CC(CC(C4)C2)C3)c2cc[nH]c(=O)c21 [Example 65]
Ki (BRD4 (BDI_K57-E168)): 416 nM
Ki (BRD4 (BDII_E352-M457)): 2640 nM

Structure (SMILES): Cn1ccc2c(-c3cc(S(C)(=O)=O)ccc3OCC3CC3(F)F)cn(C)c2c1=O (stereo not drawn) [Example 43, 3-{2-[(2,2-difluorocyclopropyl)methoxy]-5-(methylsulfonyl)phenyl}-1,6-dimethyl-1,6-dihydro-7H-pyrrolo[2,3-c]pyridin-7-one]
Ki (BRD4 (BDI_K57-E168)): 2580 nM
Ki (BRD4 (BDII_E352-M457)): 2540 nM
